Patent US7550425B2, “Diuretic peptide conjugates” (Zealand Pharma A/S, priority 2000, dated 2009)
Read-outs that look alike come from different tables or passages of the source.

Experiments:
[1] = test system: chronically instrumented rats; test: Twelve-hour i.v. infusion with servo-controlled volume replacement (acute tachyphylaxis); assay type: in vivo, rat
Description: To evaluate whether acute tachyphylaxis develops during i.v. treatment with Compound 1, an additional series of experiments were performed. Chronically instrumented rats were infused with vehicle (150 mM glucose) or Compound 1 (1 nmol/kg/min) for twelve hours while water balance was maintained using a computer-driven, servo-controlled i.v. volume replacement system^[2]. Acute tachyphylaxis has been observed during repeated i.v. dosing of the vasopressin antagonist SKF 101926 in conscious dogs^[12] and tolerance during chronic treatment has been reported for the selective V2-receptor antagonist OPC-31260 ^[13].

hORL1 receptor = hORL1 receptor (Homo sapiens, UniProt P41146); test: Inhibition of forskoline-induced cAMP formation in HEK293 cells expressing human ORL1; assay type: cell-based; design: expressed in transfected cells; host or cells: HEK293; settings: transfected HEK293 cells
Chain of hORL1 receptor (P41146 whole entry): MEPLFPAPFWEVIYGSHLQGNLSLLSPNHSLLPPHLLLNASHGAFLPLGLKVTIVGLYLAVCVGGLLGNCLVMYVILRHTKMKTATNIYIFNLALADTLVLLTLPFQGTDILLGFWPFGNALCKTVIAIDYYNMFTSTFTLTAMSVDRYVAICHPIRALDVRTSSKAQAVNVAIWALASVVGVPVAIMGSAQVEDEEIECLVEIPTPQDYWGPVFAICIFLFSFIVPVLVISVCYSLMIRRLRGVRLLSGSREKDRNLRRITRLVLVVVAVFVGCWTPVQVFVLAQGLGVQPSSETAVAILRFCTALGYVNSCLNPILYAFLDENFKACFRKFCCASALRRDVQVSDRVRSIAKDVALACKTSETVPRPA

[2] = test system: conscious Sprague Dawley rats; assay type: in vivo, rat; as to Behavioral changes: key: 0 indicates a lack of response; (↓) indicates a very weak decrease; ↓ indicates a weak decrease; ↑ indicates a weak increase; ↑↑ indicates a strong increase; as to Food intake: key: 0 indicates a lack of response; (↓) indicates a very weak decrease; ↓ indicates a weak decrease; ↑ indicates a weak increase; ↑↑ indicates a strong increase; as to UNaV: key: 0 indicates a lack of response; (↓) indicates a very weak decrease; ↓ indicates a weak decrease; ↑ indicates a weak increase; ↑↑ indicates a strong increase
Description: In the conscious rat model, the animal is chronically instrumented with catheters in the urinary bladder, the femoral artery, and the femoral vein. The animal receives a continuous i.v. infusion with isotonic saline, 50 μl/min. Urine is collected in vials in consequtive urine collection periods of 10 min each. After two control periods, the test compound is administered and fractionated urine collections (10 min periods) are continued for at least two hours. Urinary concentrations of sodium and potassium are determined by flame photometry (Instrumentation Laboratory 943) using caesium as internal standard.
The diuretic effect of the peptide conjugates of the invention has been tested in conscious rats, where Compound 1 elicits a powerful and sustained diuretic response. Cardiovascular and renal responses produced by i.v. infusion of nociceptin (Phoenix Pharmaceuticals) and Compound 1 have been studied in conscious Sprague Dawley rats. The results are shown in FIGS. 2 to 8 wherein HR is heart rate, MAP is mean arterial pressure, V is urine flow rate, UNaV is urinary excretion rate of sodium, RSNA is renal sympathetic nerve activity expressed as % of the control level, Cosm is the osmolar clearance, and CH2O is free water clearance.
Furthermore, the effects of i.v. bolus administration of nociceptin (30 and 100 nmol/kg, Phoenix Pharmaceuticals) and nociceptin-NH2 (30 nmol/kg) on heart rate, arterial pressure and RSNA were studied in groups of 6 conscious Sprague-Dawley rats.
[…] After stabilization of urine flow rate and urinary sodium excretion, urine was collected during a 20-min control period. After this, the i.v. bolus injection was given or the i.v. infusate was switched to a solution of isotonic saline containing Compound 1 (i.v. infusion experiments). From the time of drug administration, experimental urine samples (10-min consecutive periods) were taken for 80 min.
One hour prior to the start of each experiment a food pellet (standard rodent chow) was placed within access to the rat though a hole in the rat holder. The number and time of feeding responses (i.e., times in which the rat began to eat the food pellet) was recorded before, and after drug administration. If a positive feeding response was observed, the pellet was removed from the restrainer to prevent feeding-induced alterations in heart rate and/or mean arterial pressure. At 10-min intervals, the food pellet was presented to the rat to determine the duration of the feeding response.

mouse vas deferens = test: Mouse vas deferens assay: inhibition of electrically-induced contraction; settings: cumulative addition; data not shown
Excerpt: The compounds of the present invention are pharmacologically active, e.g. as nociceptin agonists or partial agonists, and a useful method of showing activity is described by Hughes J., Kosterlitz H. W., Leslie F. M.: Effect of morphine on adrenergic transmission in the mouse vas deferens. Assessment of agonist and antagonist potencies of narcotic analgesics^[4]. The isolated electrically stimulated mouse vas deferens preparation has been widely used to evaluate the functional pharmacological actions of opioid agonists and antagonists in vitro^[5].
The vas deferens from male NMRI albino mice weighing 30-40 g were placed in a SCHULER organ bath Type 809, Hugo Sachs Elektronik, Germany, and perfused with a 37° C., modified Krebs solution (NaCl 6,9 g/L, KCl 0.35 g/L, KH2PO4 0.16 g/L, NaHCO3 2.1 g/L, Glucose H2O 2.0 g/L, CaCl2 2.52 mL/L). The solution was gassed with carbogen (95% O2 and 5% CO2) throughout the experiment. The tissue was electrically stimulated through two silver electrodes directly in the organ bath using a HSE Stimulator I Type 215. Stimulation of the tissue was performed by applying a supramaximal voltage (15 Volts) in trains of 10 square pulses every 60 s, each of 1 ms duration with a frequency of […]. Concentration-response curves were performed by adding test substances that relax mouse vas deferens smooth muscles cumulatively to the organ baths. The test substances used in the assay were nociceptin in an isotonic saline solution, Compound 1 (as the trifluoroacetate in an isotonic saline solution), Compound 2 (as the trifluoroacetate in an isotonic saline solution), and the hexapeptide Ac-RYYRWK-NH2 (SEQ ID NO: 1) (as the trifluoroacetate in an isotonic saline solution).

[3] = I.v. bolus injection 30 nmol/kg
[4] = I.v. infusion 0.1 nmol/kg/min (n = 6)
[5] = I.v. infusion 1.0 nmol/kg/min (n = 6)
[6] = I.v. infusion 10 nmol/kg/min (n = 6)
[7] = i.v. infusion 1 and 0.1 nmol/kg/min, FIG. 3

Ac-RYYRWKKKKKKK-NH2 [Compound 1, Ac-RYYRWKKKKKKK-NH2]
tubular water reabsorption and haemodynamics ([1]; i.v. infusion 1 nmol/kg/min): inhibited tubular water reabsorption without concomitant changes in arterial blood pressure, heart rate, renal blood flow, glomerular filtration rate or proximal tubular reabsorption | duration of aquaretic response ([1]; i.v. infusion 1 nmol/kg/min for twelve hours): sustained aquaretic response lasting the entire 12-hour infusion period | acute tachyphylaxis ([1]; i.v. infusion 1 nmol/kg/min, 12 hours): no acute tachyphylaxis develops within the first 12 hours of treatment | magnitude of aquaretic response versus OPC-31260 ([1]; i.v. infusion 1 nmol/kg/min, FIG. 9): aquaretic response of similar magnitude to the response seen with maximal doses of the selective vasopressin type-2 receptor antagonist OPC-31260 | relative maximum relative to nociceptin (hORL1 receptor): 92% | Δ Blood Pressure (%) ([2]; I.v. bolus 10 nmol/kg (n = 6)): −4 ± 1% | Δ K excretion (%) ([2]; I.v. bolus 10 nmol/kg (n = 6)): −35 ± 4% | Δ Na excretion (%) ([2]; I.v. bolus 10 nmol/kg (n = 6)): −44 ± 3% | Δ Urine Flow (%) ([2]; I.v. bolus 10 nmol/kg (n = 6)): +83 ± 42% | Δ Blood Pressure (%) ([2]; I.v. bolus 30 nmol/kg (n = 4)): −8 ± 2% | Δ K excretion (%) ([2]; I.v. bolus 30 nmol/kg (n = 4)): −20 ± 7% | Δ Na excretion (%) ([2]; I.v. bolus 30 nmol/kg (n = 4)): −51 ± 7% | Δ Urine Flow (%) ([2]; I.v. bolus 30 nmol/kg (n = 4)): +207 ± 11% | Δ Blood Pressure (%) ([2]; I.v. bolus 100 nmol/kg (n = 6)): −12 ± 2% | Δ K excretion (%) ([2]; I.v. bolus 100 nmol/kg (n = 6)): −52 ± 5% | Δ Na excretion (%) ([2]; I.v. bolus 100 nmol/kg (n = 6)): −70 ± 2% | Δ Urine Flow (%) ([2]; I.v. bolus 100 nmol/kg (n = 6)): +249 ± 60% | Δ Blood Pressure (%) ([2]; I.v. bolus 300 nmol/kg (n = 4)): −15 ± 3% | Δ K excretion (%) ([2]; I.v. bolus 300 nmol/kg (n = 4)): −79 ± 6% | Δ Na excretion (%) ([2]; I.v. bolus 300 nmol/kg (n = 4)): −85 ± 6% | Δ Urine Flow (%) ([2]; I.v. bolus 300 nmol/kg (n = 4)): +127 ± 47% | Behavioral changes [2, 3]: 0 | Food intake [2, 3]: 0 | HR [2, 3]: 0 | MAP [2, 3]: 0 | Behavioral changes ([2]; I.v. infusion 0.1 nmol/kg/min): 0 | Food intake ([2]; I.v. infusion 0.1 nmol/kg/min): 0 | HR ([2]; I.v. infusion 0.1 nmol/kg/min): 0 | UNaV ([2]; I.v. infusion 0.1 nmol/kg/min): 0 | Δ Blood Pressure (%) [2, 4]: −5 ± 4% | Δ K excretion (%) [2, 4]: −16 ± 6% | Δ Na excretion (%) [2, 4]: −5 ± 3% | Δ Urine Flow (%) [2, 4]: +99 ± 21% | Behavioral changes ([2]; I.v. infusion 1.0 nmol/kg/min): 0 | Food intake ([2]; I.v. infusion 1.0 nmol/kg/min): 0 | HR ([2]; I.v. infusion 1.0 nmol/kg/min): 0 | Δ Blood Pressure (%) [2, 5]: −10 ± 2% | Δ K excretion (%) [2, 5]: −51 ± 9% | Δ Na excretion (%) [2, 5]: −64 ± 7% | Δ Urine Flow (%) [2, 5]: 210 ± 51% | Δ Blood Pressure (%) [2, 6]: −15 ± 3% | Δ K excretion (%) [2, 6]: −68 ± 15% | Δ Na excretion (%) [2, 6]: −79 ± 6% | Δ Urine Flow (%) [2, 6]: 160 ± 68% | bradycardia and hypotension to an i.v. bolus injection of nociceptin ([2]; after 120 min of i.v. infusion 1 nmol/kg/min, n=6): completely blocked | water diuretic response ([2]; continuous i.v. infusion 1 and 10 nmol/kg/min): selective water diuretic response | heart rate, arterial pressure and RSNA ([2]; i.v. bolus 30 nmol/kg): did not produce any changes in heart rate, blood pressure or RSNA | stimulation of appetite or behavioral changes ([2]; i.v. bolus 30 nmol/kg): do not show any signs of stimulation of appetite or behavioral changes | diuretic (V) and antinatriuretic (UNaV) response ([2]; i.v. bolus 30 nmol/kg, data not shown): marked diuretic (V) and antinatriuretic (UNaV) response | appetite, sedation, behavioral changes ([2]; i.v. infusion 1 and 0.1 nmol/kg/min): no signs of increased appetite, sedation, or behavioral changes | HR response [2, 7]: little effect on HR | MAP response [2, 7]: slight, but significant reduction in MAP | diuretic (V) and antinatriuretic (UNaV) responses [2, 7]: significant diuretic (V μl/min) and antinatriuretic responses | fold more potent than nociceptin in producing similar magnitude diuretic and antinatriuretic responses ([2]; i.v. infusion, FIGS. 5 and 6): approximately 10 fold | duration of the diuretic effect ([2]; i.v. infusion, compared with nociceptin): tended to persist for a greater duration than that of i.v. nociceptin infusion | potency order for inhibition of electrically-induced contraction of the mouse vas deferens (mouse vas deferens): nociceptin>Compound 1=Compound 2>>Ac-RYYRWK-NH2
